# From patent US5856356A, “Use of strontium salts and pharmaceutical compositions thereof for the treatment of arthrosis” (Adir et Compagnie, priority 1996, dated 1999)
# Test system: human chondrocytes
smiles,measurement,setting,value
"[Cl-].[Cl-].[Sr+2] [SrCl2, strontium chloride]",production of sulfated glycoseaminoglycans,"24 hours, concentration printed ""210^-3 M"", control 43 871 ± 1124, p < 0.05",52 839 c.p.m./10^6 cells
same,effect on the synthesis of proteoglycans / stimulation of the chondroformation (in words),"human chondrocytes, same effects as compound A",exhibits the same effects
